# Measurements: a melting point compilation (Tetko et al.)
row,SMILES,melting point
1,Clc1ncnc2sc3c(c12)CCCC3,96 °C
2,CC1OC(Oc2c(-c3ccc(O)c(O)c3)oc3cc(O)cc(O)c3c2=O)C(O)C(O)C1O (configuration not stated),170 °C
3,Cc1cnc2ccccc2c1C,73.5 °C
4,Cc1nc2scc(-c3ccccc3)c2c(=O)n1NC(=O)c1ccc(Cl)cc1,235 to 236 °C
5,O=C(O)c1ccc(Cn2cnc3ccccc32)cc1,260 to 262 °C
6,Cn1c([N+](=O)[O-])cnc1C=Cc1ccnc(N)n1,234 °C
7,Cc1nc(-c2cccc(Br)c2)no1,81 to 83 °C
8,CC(C)c1cccc(O)c1O,47 °C
9,O=C(c1ccc2c(c1O)CC=CC2)c1cccc2ccccc12,132 °C
10,CCCCCCCS,-43 °C
11,O=C(CCl)c1cc(C(=O)CCl)c([N+](=O)[O-])cc1[N+](=O)[O-],148 °C
12,COS(=O)(=O)c1ccc([N+](=O)[O-])cc1,94 °C
13,Clc1cccc2c1Oc1ccccc1O2,104 °C
14,Nc1snnc1-c1ccc(C(F)(F)F)cc1,125 to 128 °C
15,Cc1nc(-c2cccc(N=C=O)c2)no1,72 to 74 °C
16,O=c1[nH]ncc2ccccc12,188 °C
17,NCc1ccc2occc2c1,32 to 34 °C
18,Cn1ccc2cc(Br)ccc21,43 to 44 °C
19,BrCc1c(CBr)c(CBr)c2ccccc2c1CBr,197 °C
20,O=C(O)c1cc([N+](=O)[O-])c(Cl)c([N+](=O)[O-])c1,161 °C

row,SMILES,melting point
1,CC1=C(c2ccccc2)Cc2ccccc21,75 °C
2,O=Cc1cccc2c1OCC2,54 to 55 °C
3,O=C(C1=NOC2C(=O)N(c3cc(Cl)ccc3Cl)C(=O)C12)c1ccc([N+](=O)[O-])cc1 (configuration not stated),216 °C
4,O=C(O)C=Cc1ccc(C=CC(=O)O)cc1,300 °C
5,O=[N+]([O-])c1cn[nH]c1,161 °C
6,O=C(O)/C=C/c1cccc2c(Br)ccc([N+](=O)[O-])c12,141 to 142 °C
7,O=C1N=NC(=O)c2cc3c(cc21)CCC3,310 °C
8,Clc1cc2oc3c(Cl)cc(Cl)c(Cl)c3c2cc1Cl,237 °C
9,N#CCS(=O)(=O)c1ccccc1,112 °C
10,NCc1ccccc1,10 °C
11,O=C(C=Cc1ccc(Br)o1)c1ccco1,76 to 78 °C
12,O=C(OCCc1ccc(CCOC(=O)c2ccc([N+](=O)[O-])cc2)cc1)c1ccc([N+](=O)[O-])cc1,173 °C
13,O=C(O)c1cc(Br)c(Br)s1,230 °C
14,O=C(c1ccccc1O)N1CCOCC1,175 °C
15,CC(C)(C)C1=CC(=Cc2cc(C(C)(C)C)c(O)c(C(C)(C)C)c2)C=C(C(C)(C)C)C1=O,156 to 160 °C
16,CCCCCCCCCCCC(=O)c1ccccc1,47 °C
17,NC(=S)Cn1cnc(Cl)c1Cl,204 to 207 °C
18,N#Cc1ccc(N)cc1Cl,118 °C
19,c1ccc(CNc2ccccc2-n2c(-c3ccccc3)nc3ccccc32)cc1,160 °C
20,O=C1CCSc2ccccc21,29 °C

row,SMILES,melting point
1,CCCCCCCCc1ccc(NC(=O)c2ccc(CC)cc2)cc1,109 °C
2,COc1ccc(-c2csc(/C(C#N)=C\c3ccco3)n2)cc1,115 °C
3,Cc1nc2ccccc2nc1-c1cc(-c2nc3ccccc3nc2C)c([N+](=O)[O-])cc1[N+](=O)[O-],239 °C
4,Cc1ccc(O)c(C(=O)c2ccccc2)c1,83 to 85 °C
5,N#Cc1cccc(C(N)=O)c1,223 °C
6,CCCSP(=O)(OCC)Oc1ccc(Br)cc1Cl (configuration not stated),< 25 °C
7,O=c1c2ccccc2ccc2ccccc12,88.5 °C
8,O=C(ON=C(c1cc2ccccc2o1)c1cc2ccccc2o1)c1ccccc1,154 to 155 °C
9,O=C1c2ccccc2C(=O)c2c(O)c(O)cc(O)c21,259 °C
10,N#CC(c1ccc(Cl)cc1)N1CCOCC1 (configuration not stated),76 to 77 °C
11,Cc1ccc(Cl)c(N)c1Cl,37 to 40 °C
12,NS(=O)(=O)c1cc2c(cc1Cl)N=C(CSCc1ccccc1)NS2(=O)=O,232 °C
13,ClC(Cl)(Cl)c1ccc(C(Cl)(Cl)Cl)cc1,109 °C
14,Clc1ccc2nonc2c1,37 to 40 °C
15,CNC1=CC(=O)c2ccccc2C1=O,230 °C
16,Cc1cncc(Oc2cccc(Br)c2)n1,38 to 39.5 °C
17,COc1ccc(Cl)cc1N=C=S,58 °C
18,CC1=NN(c2ccccc2)C(=O)C1=CC1C(=O)N(c2ccccc2)N=C1C (configuration not stated),180 to 181 °C
19,CN1CCN(c2ncc(Br)c(OCc3ccccc3)n2)CC1,63 °C

# The next lines start with the values.
row,melting point,SMILES
1,219 to 221 °C,Cc1nc(NC(=O)NS(=O)(=O)c2cccs2)nc(O)c1C
2,200 °C,OCC1OC(Oc2ccc(O)cc2)C(O)C(O)C1O (configuration not stated)
3,237 °C,CCOC(=O)NC1C(N(C)C)C2CCC1(C)C2(C)C (configuration not stated)
4,159 to 160 °C,COC(=O)c1cc(O)no1
5,133 °C,COC(=O)c1cc(N)cc(N)c1
6,44 to 47 °C,CCOC(=O)c1sc(C)nc1-c1ccccc1
7,105 to 110 °C,CC(C)(C)OC(=O)N1CC[C@H]1C(=O)O
8,-34.4 °C,CCCCCCCOC(=O)CCCCC
9,98 °C,CC(C)OC(=O)C1=C2c3ncccc3ON2C(Cl)C(Cl)C1Cl (configuration not stated)
10,63 to 65 °C,CCCc1c(C(=O)OCC)cnn1-c1ccc(Cl)cc1
11,139 °C,CCOC(O)=C1C=NC2=C(CNN2C)C1=O
12,196 °C,O=C(O)C1CC1C(=O)Nc1ccc(Cl)cc1Cl (configuration not stated)
13,87 °C,CCNc1nc(NC(C)CC)nc(OC)n1 (configuration not stated)
14,132 °C,CC(=O)N1CC(O)CC1C(=O)O (configuration not stated)
15,201 °C,CC(=O)C1C(=O)C2(C)CCC1C2(C)C (configuration not stated)
16,184 °C,CCCCC(=O)OC1(C(=O)CO)C(C)CC2C3CCC4=CC(=O)C=CC4(C)C3(F)C(O)CC21C (configuration not stated)
17,170 °C,CC(=O)c1nn(-c2cccc(C)c2C)c(=N)s1
18,79 °C,O=C1C2=C(O)CCCC2Cc2ccccc21 (configuration not stated)
19,169 °C,O=C(NC(Cc1cccs1)C(=O)O)OCC1c2ccccc2-c2ccccc21 (configuration not stated)
20,182 to 184 °C,Cc1nccn1-c1cccc(C(=O)O)c1
21,50 to 52 °C,CCOC(=O)c1csc(-c2ccc(F)cc2F)n1
22,-38.5 °C,CCCCCCCCOC(C)=O
23,132 °C,COc1cc(N=Nc2c(Br)cc([N+](=O)[O-])cc2[N+](=O)[O-])c(NC(C)=O)c(N(CCOC(C)=O)CCOC(C)=O)c1
24,35 to 38 °C,COC(=O)c1cc(S(=O)(=O)Cl)oc1C
25,68 to 69 °C,CCOC(=O)C=Cc1ccc(OC)c(OC)c1Cl
26,110 °C,CC1=C(C(=O)Nc2ccccc2)CCCO1
27,188 to 189 °C,Cc1cc(C)c(CC(=O)c2oc3ccccc3c2N)c(C)c1
28,134 to 139 °C,CN(C)c1ccc([N+](=O)[O-])c(N)c1
